Measured values taken from patent US20260097049A1, “C[…] AND METHODS OF USE FOR TREATMENT AND PREVENTION OF CANCER” (BlackStone Therapeutics, LLC, priority 2022, published 2026).
Like-named read-outs stand apart in the source and are kept apart here.

How the values were obtained:
Type in all cases: cell-based
PANC1 = assay: IC50 in cell lines (Table 4), PANC1; conditions: Homo sapiens, PANC-1
Method: (§1) Various compounds, including (R)-H4CBD and (S)-H4CBD, and H4CBDV racemic mixture, were tested for cell killing against various cancer cell lines, including PANC-1, HPAF-II, AsPC-1, and MIA-PaCa2.
(§2) Table 4 summarizes the measured IC50 for specific compounds in the indicated cell types.

MIA-PaCa2 = assay: IC50 in cell lines (Table 4), MIA-PaCa2; conditions: Homo sapiens, MIA PaCa-2
Method: as §1, §2

[1] = tested on: A549 Lung Carcinoma Epithelial Cells (CCL-185 from ATCC); assay: Percent viability of lung carcinoma cells; conditions: for cell viability, comparison in words (figure legends): FIGS. 39, 42, 43; for viability at 1.56 µM / viability at 3.12 µM / viability at 6.25 µM / viability at 12.5 µM / viability at 25 µM / viability at 50 µM: Homo sapiens
Method: GR-X1=H4CBDV, GR-X2=(R)-H4CBD, GR-X3=(S)-H4CBD, GR-X4=HHC.
The IC50 of the hydrogenated cannabivarin, hexahydrocannabidivarin (H4CBDV), (R)-H4CBD, (S)-H4CBD, HHC racemic mixture, and gemcitabine, paclitaxel, and 5-fluorouracil were determined in lung carcinoma cells (A549 Lung Carcinoma Epithelial Cells (CCL-185 from ATCC)) as shown in FIGS. 39-43 and Table 3.

Ames test = assay: Ames test
hERG = hERG (Homo sapiens, UniProt Q12809); assay: hERG assay
Method: (§3) At 50 μM, 74.8% of human fibroblasts died and 8% of hepatocytes.

human fibroblasts = assay: Cytotoxicity in human fibroblasts
Method: as §3

hepatocytes = assay: Cytotoxicity in hepatocytes; conditions: at 50 μM
Method: as §3

AsPC-1 [2] = assay: CellTiterGlo cell viability, AsPC-1 cells; conditions: Homo sapiens, ASPC1, 72 h
Method: (§4) The IC50 values for (R)-H4CBD, (S)-H4CBD, H4CBDV racemic mixture, and bortezomib were determined. Compound treatment of cells started one day after seeding with a final DMSO concentration of 0.1% and was performed by nanodrop-dispensing using a Tecan Dispenser. 0.1% DMSO (solvent) and Staurosporine (1,0E-05M) served as high control (100% viability) and low control (0% viability), respectively. For the assays, cells were seeded in white cell culture-treated flat and clear bottom multiwell plates and incubated at 37° C. overnight before compounds were added. After incubation for 72 h at 37° C. at 5% or 10% CO2 dependent on the medium, cell plates were equilibrated to room temperature for one hour, CellTiterGlo reagent (Promega) was added and luminescence was measured approximately an hour later using a luminometer.
(§5) Raw data were converted into percent cell viability relative to the high and low control, which were set to 100% and 0%, respectively. IC50 calculation was performed using GraphPad Prism software with a variable slope sigmoidal response fitting model using 0% viability as bottom constraint and 100% viability as top constraint. IC50 results in PANC-1, MIA-PaCa2, and AsPC-1 cells for (R)-H4CBD, (S)-H4CBD, H4CBDV racemic mixture, and bortezomib are shown in FIGS. 10-12 and Table 2

MiaPaCA-2 = assay: CellTiterGlo cell viability, MiaPaCA-2 cells; conditions: Homo sapiens, MIA PaCa-2, 72 h
Method: as §4, §5

PANC-1 = assay: CellTiterGlo cell viability, PANC-1 cells; conditions: Homo sapiens, 72 h
Method: as §4, §5

HPAFII = assay: IC50 in cell lines (Table 4), HPAFII; conditions: Homo sapiens, HPAF-II
Method: as §1, §2

AsPC-1 [3] = assay: IC50 in cell lines (Table 4), AsPC-1; conditions: Homo sapiens, ASPC1
Method: as §1, §2

[4] = A549, read-out: Percent viability of cells, Mean (%)
[5] = A549, agent concentration 1.56 uM, read-out: Percent viability of cells, Mean (%)
[6] = A549, agent concentration 3.12 uM, read-out: Percent viability of cells, Mean (%)
[7] = A549, agent concentration 6.25 uM, read-out: Percent viability of cells, Mean (%)
[8] = A549, agent concentration 12.5 uM, read-out: Percent viability of cells, Mean (%)
[9] = A549, agent concentration 25 uM, read-out: Percent viability of cells, Mean (%)
[10] = A549, agent concentration 50 uM, read-out: Percent viability of cells, Mean (%)

Chain of hERG (Q12809 whole entry): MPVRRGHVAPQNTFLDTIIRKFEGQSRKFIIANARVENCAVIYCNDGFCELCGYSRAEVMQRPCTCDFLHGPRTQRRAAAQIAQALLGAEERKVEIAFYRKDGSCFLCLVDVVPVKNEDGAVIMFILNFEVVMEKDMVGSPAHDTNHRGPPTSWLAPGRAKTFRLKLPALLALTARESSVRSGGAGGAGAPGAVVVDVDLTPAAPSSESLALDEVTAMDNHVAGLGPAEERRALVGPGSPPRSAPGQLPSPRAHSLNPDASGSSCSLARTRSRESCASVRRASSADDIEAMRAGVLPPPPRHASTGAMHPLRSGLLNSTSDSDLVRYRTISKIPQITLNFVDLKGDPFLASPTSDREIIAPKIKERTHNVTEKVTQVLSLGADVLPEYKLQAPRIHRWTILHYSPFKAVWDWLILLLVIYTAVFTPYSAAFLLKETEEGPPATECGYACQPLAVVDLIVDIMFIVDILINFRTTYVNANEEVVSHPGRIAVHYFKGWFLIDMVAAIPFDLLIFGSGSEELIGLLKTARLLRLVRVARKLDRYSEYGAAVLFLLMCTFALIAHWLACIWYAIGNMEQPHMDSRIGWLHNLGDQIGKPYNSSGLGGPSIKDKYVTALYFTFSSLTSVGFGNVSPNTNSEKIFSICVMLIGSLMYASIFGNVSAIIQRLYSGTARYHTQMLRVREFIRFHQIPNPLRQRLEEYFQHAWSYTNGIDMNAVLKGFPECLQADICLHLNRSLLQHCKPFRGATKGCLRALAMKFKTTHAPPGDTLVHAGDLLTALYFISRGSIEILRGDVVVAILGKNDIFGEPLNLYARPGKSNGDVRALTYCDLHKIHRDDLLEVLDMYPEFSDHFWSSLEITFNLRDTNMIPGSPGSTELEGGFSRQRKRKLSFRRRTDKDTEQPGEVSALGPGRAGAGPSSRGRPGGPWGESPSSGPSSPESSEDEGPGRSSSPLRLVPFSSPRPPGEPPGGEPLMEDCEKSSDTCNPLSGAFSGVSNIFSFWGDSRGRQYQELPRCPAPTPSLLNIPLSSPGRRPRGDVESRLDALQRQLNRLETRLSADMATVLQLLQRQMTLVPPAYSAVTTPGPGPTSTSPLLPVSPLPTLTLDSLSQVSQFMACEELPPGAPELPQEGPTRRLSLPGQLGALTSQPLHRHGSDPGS

## CCCc1cc(O)c2c(c1)OC(C)(C)C1CCC(C)CC21 (racemic) [CCL-103, HHCV]
PANC1
  IC50: 0.00507 mM
MIA-PaCa2
  IC50: 0.0197 mM

## CCCCCCCc1cc(O)c(C2CC(C)CCC2C(C)C)c(O)c1 (racemic) [CCL-105, H4CBDP]
PANC1
  IC50: 0.00255 mM
MIA-PaCa2
  IC50: 0.0061 mM

## CCCCCc1cc(O)c2c(c1)OC(C)(C)C1CCC(C)CC21 (racemic) [CCL-113, hexahydrocannabinol]
[1]
  cell viability, comparison in words (figure legends): the only compound that presented higher cell viability from 25 μM
[1]; [4]
  viability at 1.56 µM: 92.5%
  viability at 3.12 µM: 92.9%
  viability at 6.25 µM: 95.6%
  viability at 12.5 µM: 96.1%
  viability at 25 µM: 81.6%
  viability at 50 µM: 22.1%
Ames test
  cytotoxicity in Ames test: did not show cytotoxicity
hERG
  cytotoxicity in hERG assay: did not show cytotoxicity
Human fibroblasts; Homo sapiens, Fibroblast
  IC50: 14.4 µM
Human fibroblasts; at 50 μM
  human fibroblasts died: 74.8%
hepatocytes
  hepatocytes died: 8%

## O=c1[nH]cc(F)c(=O)[nH]1 [5-fluorouracil, reference compound]
[1]
  cell viability, comparison in words (figure legends): presented the best cell viability when compared to the other two drugs, gemcitabine and paclitaxel

## CC(C)C[C@H](NC(=O)[C@H](Cc1ccccc1)NC(=O)c1cnccn1)B(O)O [Bortezomib, reference compound]
AsPC-1 [2]
  IC50: 0.0334 µM
MiaPaCA-2
  IC50: 0.0149 µM
PANC-1
  IC50: 0.0134 µM

## CCCCCc1cc(O)c2c(c1)OC(C)(C)C1CC[C@@H](C)CC21 (stereo partly drawn) [CCL-101, 9R-Hexahydrocannabinol]
PANC1
  IC50: 0.00908 mM
HPAFII
  IC50: 0.00884 mM
MIA-PaCa2
  IC50: 0.0127 mM
AsPC-1 [3]
  IC50: 0.0166 mM

## CCCCCc1cc(O)c2c(c1)OC(C)(C)C1CC[C@H](C)CC21 (stereo partly drawn) [CCL-102, 9S-Hexahydrocannabinol]
PANC1
  IC50: 0.0172 mM
HPAFII
  IC50: 0.00702 mM
MIA-PaCa2
  IC50: 0.0272 mM
AsPC-1 [3]
  IC50: 0.0115 mM

## CCCCCc1cc(O)c(C2C[C@H](C)CCC2C(C)C)c(O)c1 (stereo partly drawn) [CCL-111, (R)-H4CBD]
AsPC-1 [2]
  IC50: 4.85 µM
MiaPaCA-2
  IC50: 3.24 µM
PANC-1
  IC50: 5.29 µM

## CCCCCc1cc(O)c(C2C[C@@H](C)CCC2C(C)C)c(O)c1 (stereo partly drawn) [CCL-112, (S)-H4CBD]
AsPC-1 [2]
  IC50: 6.17 µM
MiaPaCA-2
  IC50: 4.77 µM
PANC-1
  IC50: 8.02 µM

## CCCCCc1cc(O)c(C2C[C@H](C)CCC2C(C)C)c(O)c1 (some centres unmarked) [R- H4CBDV]
[1]; [5]
  viability at 1.56 µM: 92.3%
[1]; [6]
  viability at 3.12 µM: 86.7%
[1]; [7]
  viability at 6.25 µM: 86%
[1]; [8]
  viability at 12.5 µM: 45%
[1]; [9]
  viability at 25 µM: 14%
[1]; [10]
  viability at 50 µM: 4.18%

## CCCCCc1cc(O)c(C2C[C@@H](C)CCC2C(C)C)c(O)c1 (some centres unmarked) [S- H4CBDV]
[1]; [5]
  viability at 1.56 µM: 94.2%
[1]; [6]
  viability at 3.12 µM: 99.6%
[1]; [7]
  viability at 6.25 µM: 94.1%
[1]; [8]
  viability at 12.5 µM: 81.3%
[1]; [9]
  viability at 25 µM: 13.8%
[1]; [10]
  viability at 50 µM: 1.53%

## CC(=O)O[C@H]1C(=O)[C@@]2(C)[C@H]([C@H](OC(=O)c3ccccc3)[C@]3(O)C[C@H](OC(=O)[C@H](O)[C@@H](NC(=O)c4ccccc4)c4ccccc4)C(C)=C1C3(C)C)[C@]1(OC(C)=O)CO[C@@H]1C[C@@H]2O [paclitaxel, reference compound]
[1]
  cell viability, comparison in words (figure legends): higher cytotoxicity at a lower concentration than 5-flurouracil
